Laboratory results as given in ChEMBL document CHEMBL5053557, “Discovery of Novel Dual-Target Inhibitor of Bromodomain-Containing Protein 4/Casein Kinase 2 Inducing Apoptosis and Autophagy-Associated Cell Death for Triple-Negative Breast Cancer Therapy” (J Med Chem, 2021).
Activity calls are given as the source filed them. No cut-off for these calls is given here.

What was measured:
[1] = system: MDA-MB-468; assay: Antitumor activity against human MDA-MB-468 cells xenografted in po dosed nude BALB/c mouse assessed as tumor growth inhibition administered once daily for 19 days and measured every 3 days; assay type: functional, organism-based; conditions: dose lower […], dose upper 50.0 mg/kg, time 19.0 day
[2] = system: Mus musculus; assay: Toxicity in nude BALB/c mouse xenografted with human MDA-MB-468 cells assessed as change in body weight at 25 to 50 mg/kg, po administered once daily for 19 days and measured every 3 days; assay type: organism-based; conditions: in vivo, 456 h, dose 25-50 mg/kg, time 19 day
[3] = AUC(0 to t) in Sprague-Dawley rat at 10 mg/kg, po by LC-MS analysis; assay type: ADME, organism-based; parameters: dose 10 mg/kg, route po; conditions: in vivo
[4] = system: Mus musculus; assay: Toxicity in nude BALB/c mouse xenografted with human MDA-MB-231 cells assessed as morphological changes in heart at 25 to 50 mg/kg, po administered once daily for 19 days and measured every 3 days by H and E staining based assay; assay type: organism-based; conditions: in vivo, 456 h, dose 25-50 mg/kg, time 19 day
[5] = system: MDA-MB-468; assay: Induction of apoptosis in human MDA-MB-468 cells assessed as up regulation of cleaved caspase 3 after 24 hrs by Western blot analysis; assay type: functional, cell-based; conditions: dose 2.5-10 µM
[6] = system: MDA-MB-231; assay: Induction of autophagy in human MDA-MB-231 cells harboring GFP-mRFP-LC3 assessed as up regulation of beclin 1 level at 2.5 to 10 uM after 24 hrs by Western blot analysis; assay type: functional, cell-based; conditions: dose 2.5-10 µM
[7] = system: Mus musculus; assay: Toxicity in nude BALB/c mouse xenografted with human MDA-MB-468 cells assessed as morphological changes in liver at 25 to 50 mg/kg, po administered once daily for 19 days and measured every 3 days by H and E staining based assay; assay type: organism-based; conditions: in vivo, 456 h, dose 25-50 mg/kg, time 19 day
[8] = system: MDA-MB-231; assay: Antiproliferative activity against JQ-1 resistant human MDA-MB-231 cells incubated for 24 hrs by MTT assay; assay type: functional, cell-based
[9] = biological target: Casein kinase II subunit alpha (Homo sapiens, UniProt P68400); assay: Inhibition of CK2 (unknown origin)
[10] = system: MDA-MB-231; assay: Induction of apoptosis in human MDA-MB-231 cells assessed as up regulation of Bax after 24 hrs by Western blot analysis; assay type: functional, cell-based; conditions: dose 2.5-10 µM
[11] = system: MDA-MB-231; assay: Induction of autophagy in human MDA-MB-231 cells at 5 uM preincubated with 3-MA for 1 hr followed by compound addition and measured after 24 hrs by fluorescence microscopic analysis; assay type: functional, cell-based
[12] = system: MDA-MB-231; assay: Induction of autophagy in human MDA-MB-231 cells xenografted in nude BALB/c mouse assessed as increase in LC3II expression at 25 to 50 mg/kg, po administered once daily for 19 days by immunohistochemistry analysis; assay type: functional, organism-based; conditions: dose lower […], dose upper 50.0 mg/kg, time 19.0 day
[13] = system: MDA-MB-231; assay: Induction of apoptosis in human MDA-MB-231 cells at 5 uM preincubated with 3-MA for 1 hr followed by compound addition and measured after 24 hrs by Annexin V-FITC/propidium iodide staining based flow cytometric analysis; assay type: functional, cell-based
[14] = system: MDA-MB-468; assay: Induction of autophagy in human MDA-MB-468 cells harboring GFP-mRFP-LC3 assessed as autophagic flux at 5 uM after 24 hrs by fluorescence microscopic analysis; assay type: functional, cell-based
[15] = system: MDA-MB-468; assay: Inhibition of colony formation in human MDA-MB-468 cells at 5 uM after 7 days in presence of 3-MA by crystal violet staining based assay; assay type: functional, cell-based; conditions: time 7.0 day
[16] = system: Mus musculus; assay: Down regulation of phosphorylation of AKT at S129 residue expression in BALB/c SCID mouse xenogrfted with human MDA-MB-231 cells at 25 to 50 mg/kg, po administered once daily for 19 days by Western blot analysis; assay type: functional, organism-based; conditions: dose lower […], dose upper 50.0 mg/kg, time 19.0 day
[17] = Apparent volume of distribution in Sprague-Dawley rat at 1 mg/kg, iv by LC-MS analysis; assay type: ADME, organism-based; conditions: in vivo, read-out: Vz
[18] = AUC(0 to infinity) in Sprague-Dawley rat at 10 mg/kg, po by LC-MS analysis; assay type: ADME, organism-based; parameters: time infinity, dose 10 mg/kg, route po; conditions: in vivo
[19] = system: MDA-MB-231; assay: Inhibition of colony formation in human MDA-MB-231 cells after 7 days by crystal violet staining based assay; assay type: functional, cell-based; conditions: dose 2.5-10 µM, time 7.0 day
[20] = system: Mus musculus; assay: Down regulation of phosphorylation of AKT at S129 residue expression in BALB/c SCID mouse xenogrfted with human MDA-MB-231 cells at 25 to 50 mg/kg, po administered once daily for 19 days by immunohistochemistry analysis; assay type: functional, organism-based; conditions: dose lower […], dose upper 50.0 mg/kg, time 19.0 day
[21] = system: Mus musculus; assay: Down regulation of c-Myc expression in BALB/c SCID mouse xenogrfted with human MDA-MB-231 cells at 25 to 50 mg/kg, po administered once daily for 19 days by immunohistochemistry analysis; assay type: functional, organism-based; conditions: dose lower […], dose upper 50.0 mg/kg, time 19.0 day
[22] = system: MDA-MB-231; assay: Induction of autophagy in human MDA-MB-231 cells harboring GFP-mRFP-LC3 assessed as up regulation of LC3II level at 2.5 to 10 uM after 24 hrs by Western blot analysis; assay type: functional, cell-based; conditions: dose 2.5-10 µM
[23] = system: MDA-MB-231; assay: Antitumor activity against human MDA-MB-231 cells xenografted in nude BALB/c mouse assessed as tumor growth inhibition at 50 mg/kg, po administered once daily for 19 days and measured every 3 days; assay type: functional; conditions: MDA-MB-231, 456 h, time 19 day, read-out: TGI
[24] = system: MDA-MB-468; assay: Induction of autophagy in human MDA-MB-468 cells harboring GFP-mRFP-LC3 assessed as up regulation of LC3II level at 2.5 to 10 uM after 24 hrs by Western blot analysis; assay type: functional, cell-based; conditions: dose 2.5-10 µM
[25] = system: Mus musculus; assay: Toxicity in nude BALB/c mouse xenografted with human MDA-MB-231 cells assessed as morphological changes in kidney at 25 to 50 mg/kg, po administered once daily for 19 days and measured every 3 days by H and E staining based assay; assay type: organism-based; conditions: in vivo, 456 h, dose 25-50 mg/kg, time 19 day
[26] = system: Mus musculus; assay: Toxicity in nude BALB/c mouse xenografted with human MDA-MB-468 cells assessed as morphological changes in spleen at 25 to 50 mg/kg, po administered once daily for 19 days and measured every 3 days by H and E staining based assay; assay type: organism-based; conditions: in vivo, 456 h, dose 25-50 mg/kg, time 19 day
[27] = system: Mus musculus; assay: Down regulation of c-Myc expression in BALB/c SCID mouse xenogrfted with human MDA-MB-231 cells at 25 to 50 mg/kg, po administered once daily for 19 days by Western blot analysis; assay type: functional, organism-based; conditions: dose lower […], dose upper 50.0 mg/kg, time 19.0 day
[28] = system: Mus musculus; assay: Toxicity in nude BALB/c mouse xenografted with human MDA-MB-231 cells assessed as morphological changes in liver at 25 to 50 mg/kg, po administered once daily for 19 days and measured every 3 days by H and E staining based assay; assay type: organism-based; conditions: in vivo, 456 h, dose 25-50 mg/kg, time 19 day
[29] = system: MDA-MB-231; assay: Induction of autophagy in human MDA-MB-231 cells harboring GFP-mRFP-LC3 assessed as autophagic flux at 5 uM after 24 hrs by fluorescence microscopic analysis; assay type: functional, cell-based
[30] = biological target: Bromodomain-containing protein 2 (Homo sapiens, UniProt P25440); assay: Inhibition of BRD2 BD1 (unknown origin) incubated for 2 hrs by TR-FRET assay
[31] = system: MDA-MB-231; assay: Induction of apoptosis in human MDA-MB-231 cells assessed as up regulation of cleaved caspase 3 after 24 hrs by Western blot analysis; assay type: functional, cell-based; conditions: dose 2.5-10 µM
[32] = system: MDA-MB-231; assay: Induction of apoptosis in human MDA-MB-231 cells assessed as down regulation of Bcl2 after 24 hrs by Western blot analysis; assay type: functional, cell-based; conditions: dose 2.5-10 µM
[33] = Half life in Sprague-Dawley rat at 10 mg/kg, po by LC-MS analysis; assay type: ADME, organism-based; conditions: in vivo
[34] = Oral bioavailability in Sprague-Dawley rat at 10 mg/kg by LC-MS analysis; assay type: ADME, organism-based; conditions: in vivo

Sequence of Casein kinase II subunit alpha (P68400 whole entry): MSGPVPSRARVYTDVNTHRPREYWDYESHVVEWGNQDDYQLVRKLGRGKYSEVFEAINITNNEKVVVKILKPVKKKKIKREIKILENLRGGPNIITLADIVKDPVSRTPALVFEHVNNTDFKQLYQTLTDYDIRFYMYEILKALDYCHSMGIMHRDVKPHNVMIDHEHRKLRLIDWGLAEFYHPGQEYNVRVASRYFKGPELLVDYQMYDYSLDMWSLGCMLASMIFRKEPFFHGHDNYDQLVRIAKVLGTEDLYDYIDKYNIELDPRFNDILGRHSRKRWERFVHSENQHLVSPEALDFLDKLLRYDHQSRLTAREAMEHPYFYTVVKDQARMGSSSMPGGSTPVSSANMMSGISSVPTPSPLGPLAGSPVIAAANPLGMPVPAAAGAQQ
Sequence of Bromodomain-containing protein 2 (P25440 whole entry): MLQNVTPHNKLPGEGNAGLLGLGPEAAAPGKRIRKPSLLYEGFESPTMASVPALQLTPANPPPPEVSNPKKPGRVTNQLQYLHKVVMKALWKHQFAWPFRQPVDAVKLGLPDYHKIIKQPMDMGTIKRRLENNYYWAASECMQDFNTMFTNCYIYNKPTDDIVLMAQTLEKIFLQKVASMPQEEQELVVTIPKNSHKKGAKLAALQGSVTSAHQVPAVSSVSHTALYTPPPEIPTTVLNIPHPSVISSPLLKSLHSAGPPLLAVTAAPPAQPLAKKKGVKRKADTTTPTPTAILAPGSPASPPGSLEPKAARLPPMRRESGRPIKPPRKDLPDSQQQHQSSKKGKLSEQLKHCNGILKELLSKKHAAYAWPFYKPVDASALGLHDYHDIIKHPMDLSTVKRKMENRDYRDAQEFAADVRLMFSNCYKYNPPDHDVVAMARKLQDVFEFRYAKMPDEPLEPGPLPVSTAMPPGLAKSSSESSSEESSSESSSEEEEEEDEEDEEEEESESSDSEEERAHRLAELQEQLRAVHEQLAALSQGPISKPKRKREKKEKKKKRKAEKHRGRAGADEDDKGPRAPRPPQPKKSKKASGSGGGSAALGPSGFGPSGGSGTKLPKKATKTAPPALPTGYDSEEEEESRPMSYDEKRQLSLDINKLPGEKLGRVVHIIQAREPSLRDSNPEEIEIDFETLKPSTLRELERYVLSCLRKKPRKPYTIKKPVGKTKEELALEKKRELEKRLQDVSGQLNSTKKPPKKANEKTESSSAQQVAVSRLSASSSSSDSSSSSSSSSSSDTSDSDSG

## COc1cc(OC)c2c(=O)[nH]c(-c3ccc(OCC(=O)Nc4ccc(N5CCN(C)CC5)c(Cl)c4)cc3)nc2c1
[1]
  Activity: Active
[2]
  Activity: Non-Toxic
[3]
  AUC(0-t): 2080 ng·h/mL
[4]
  Activity: Non-Toxic
[5]
  Activity: Dose-dependent effect
[6]
  Activity: Active
[7]
  Activity: Non-Toxic
[8]
  Activity: Active
[9]
  IC50: 0.23 µM
[10]
  Activity: Dose-dependent effect
[11]
  Activity: inactive
[12]
  Activity: Active
[13]
  Activity: inactive
[14]
  Activity: Active
[15]
  inhibition: inactive
[16]
  Activity: Active
[17]
  Vd: 21.1 L/kg
[18]
  AUC(0-inf): 2090 ng·h/mL
[19]
  inhibition: Dose-dependent effect
[20]
  Activity: Active
[21]
  Activity: Active
[22]
  Activity: Active
[23]
  inhibition in vivo at 50 mg/kg: 63.8%
[24]
  Activity: Active
[25]
  Activity: Non-Toxic
[26]
  Activity: Non-Toxic
[27]
  Activity: Active
[28]
  Activity: Non-Toxic
[29]
  Activity: Active
[30]
  IC50: > 10 µM
[31]
  Activity: Dose-dependent effect
[32]
  Activity: Dose-dependent effect
[33]
  half-life: 5.17 h
[34]
  F: 32.5%
